How the values were obtained:
[1] = test system: Methicillin Resistant Staphylococcus aureus MRSA USA300; assay: In-vitro agar well diffusion, zone of bacterial growth inhibition; format: cell-based
Procedure: All challenge inoculum suspensions were prepared by swabbing a 3-cm diameter area of the growth from a culture plate into 4.5 ml of sterile phosphate buffer solution (PBS). […] The concentration was confirmed using historical optical density measurements. […] Concentrations of 10^4 CFU/ml for each bacteria was tested in this study.
Three (3) plates of Tryptic soy agar with 5% sheep blood (TSAII) per treatment for each bacteria was challenged with 100 μl of each inoculum 10^4 CFU/ml (MRSA USA300 or PA27312).
Inoculums were spread around each plate using 3 mm sterile glass beads.
Three (10 mm) punch biopsies were made on all inoculated TSAII blood culture media plates and those biopsies were removed with a sterile spatula to create wells on each plate.
Approximately 150-200 μl of each treatment was placed in the well of the inoculated TSA II plates. […] Negative Control Petrolatum or Sterile PBS.
Treatments were allowed to diffuse into agar for approximately 2-3 hours at room temperature prior to incubating plates for 24 hours at 37° C.
After the incubation period, the zones of bacteria growth inhibition (if any) were measured using ImageJ 1.4lo software.
IBM SSPS Statistics Version 26 with ANOVA statistical analysis was used to determine any differences between treatments.

[2] = Solubility in anhydrous lipophilic oil composition
[3] = average of 9 wells, 10^4 CFU/ml
[4] = average of 9 wells, 10^4 CFU/ml, ImageJ area

Structure (SMILES) | zone of inhibition, comparison in words ([1]; MRSA USA300) | Average Inhition in cm2 [1, 3] [cm2] | Diameter cm (of average inhibition zone) [1, 3] [cm] | Average Inhibition Zone vs Each disk [1, 4] | Average Inhibition Zone vs disk average [1, 4] | areas of inhibition zones ([1]; mean ± spread, 10^4 CFU/ml MRSA USA300) [cm^2] | inherent solubility in an oil [2]
C/C(=C\C(=O)OCCCCCCCCC(=O)O)C[C@@H]1OC[C@H](C[C@@H]2O[C@H]2[C@@H](C)[C@H](C)O)[C@@H](O)[C@H]1O [Mupirocin] | largest zone of inhibition | 42.81 | 7.3849 | 244618.78 | 244618.78 | 42.81±0.29 | –
CCCCCCCCCCCC(=O)OCC(O)CO (stereo not shown) [monolaurin, glycerol monolaurate] | – | – | – | – | – | – | less than or equal to 0.6%
